Laboratory results taken from ChEMBL document CHEMBL1201862, “PubChem BioAssay data set” (2004).
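Protocol summary: plate cells (96-well), add compound at 5 concentrations, incubate 48 h, interpolate endpoints linearly. Abbreviation: GI50, concentration required for 50% inhibition of growth.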 The source made the active and inactive calls. Rule as the data show it: active = GI50 up to about 1.1 µM and inactive = higher.

Assays:
Experiment in all cases: NCI anticancer screen, dose series, 48 h
[1] = test system: Hs-578T
[2] = test system: SN12C
[3] = test system: HOP-62
[4] = test system: UO-31
[5] = test system: NCI-H23
[6] = test system: SK-OV-3
[7] = test system: MOLT-4
[8] = test system: DU-145
[9] = test system: LOX IMVI
[10] = test system: OVCAR-3
[11] = test system: NCI/ADR-RES
[12] = test system: BT-549
[13] = test system: RXF 393
[14] = test system: OVCAR-8
[15] = test system: RPMI-8226
[16] = test system: COLO 205
[17] = test system: SNB-19
[18] = test system: TK-10
[19] = test system: SR
[20] = test system: SNB-75
[21] = test system: U-251
[22] = test system: HT-29
[23] = test system: KM12
[24] = test system: K562
[25] = test system: SF-295
[26] = test system: SK-MEL-28
[27] = test system: CCRF-CEM
[28] = test system: SF-539
[29] = test system: Malme-3M
[30] = test system: NCI-H460
[31] = test system: IGROV-1
[32] = test system: HOP-92
[33] = test system: MDA-MB-435
[34] = test system: MDA-N
[35] = test system: NCI-H226
[36] = test system: HCT-15
[37] = test system: A549
[38] = test system: MCF7
[39] = test system: CAKI-1
[40] = test system: UACC-62
[41] = test system: M14
[42] = test system: SK-MEL-2
[43] = test system: OVCAR-4
[44] = test system: HL-60
[45] = test system: SW-620
[46] = test system: MDA-MB-231
[47] = test system: UACC-257
[48] = test system: 786-0
[49] = test system: SF-268
[50] = test system: A498
[51] = test system: SK-MEL-5
[52] = test system: T47D
[53] = test system: PC-3
[54] = test system: HCT-116
[55] = test system: EKVX
[56] = test system: ACHN
[57] = test system: OVCAR-5
[58] = test system: NCI-H522

## CCOC(=O)C1(C(=O)OCC)Nc2cccnc2N(C)N1
[1]
  GI50: > 100 µM (inactive)
[2]
  GI50: 19.1 µM (inactive)
[3]
  GI50: 35.5 µM (inactive)
[4]
  GI50: 17.4 µM (inactive)
[5]
  GI50: 20.5 µM (inactive)
[6]
  GI50: > 100 µM (inactive)
[7]
  GI50: 12.4 µM (inactive)
[8]
  GI50: 18.7 µM (inactive)
[9]
  GI50: 25.4 µM (inactive)
[10]
  GI50: 20.5 µM (inactive)
[11]
  GI50: 20 µM (inactive)
[12]
  GI50: 67.3 µM (inactive)
[13]
  GI50: 18 µM (inactive)
[14]
  GI50: 18.5 µM (inactive)
[15]
  GI50: 16.2 µM (inactive)
[16]
  GI50: 11.6 µM (inactive)
[17]
  GI50: > 100 µM (inactive)
[18]
  GI50: 20.9 µM (inactive)
[19]
  GI50: 37.1 µM (inactive)
[20]
  GI50: > 100 µM (inactive)
[21]
  GI50: 20.8 µM (inactive)
[22]
  GI50: 14.7 µM (inactive)
[23]
  GI50: 50.1 µM (inactive)
[24]
  GI50: 22.8 µM (inactive)
[25]
  GI50: > 100 µM (inactive)
[26]
  GI50: 21.9 µM (inactive)
[27]
  GI50: 18.5 µM (inactive)
[28]
  GI50: 16.6 µM (inactive)
[29]
  GI50: 48.1 µM (inactive)
[30]
  GI50: > 100 µM (inactive)
[31]
  GI50: 22.8 µM (inactive)
[32]
  GI50: 14.7 µM (inactive)
[33]
  GI50: 18.9 µM (inactive)
[34]
  GI50: 17.5 µM (inactive)
[35]
  GI50: 18.4 µM (inactive)
[36]
  GI50: 18 µM
[37]
  GI50: 96.8 µM (inactive)
[38]
  GI50: 16.3 µM (inactive)
[39]
  GI50: 19 µM (inactive)
[40]
  GI50: 18 µM (inactive)
[41]
  GI50: 19.3 µM (inactive)
[42]
  GI50: 19.3 µM (inactive)
[43]
  GI50: 17.7 µM (inactive)
[44]
  GI50: 22.8 µM (inactive)
[45]
  GI50: 11.1 µM (inactive)
[46]
  GI50: 20.2 µM (inactive)
[47]
  GI50: 17.6 µM (inactive)
[48]
  GI50: 17.9 µM (inactive)
[49]
  GI50: 40.6 µM (inactive)
[50]
  GI50: 17.5 µM (inactive)
[51]
  GI50: 17.4 µM (inactive)
[52]
  GI50: 20.1 µM (inactive)
[53]
  GI50: 22.8 µM (inactive)
[54]
  GI50: 18.8 µM (inactive)

## N=C(N)Nc1nc2cc([N+](=O)[O-])ccc2[nH]1
[1]
  GI50: > 100 µM (inactive)
[2]
  GI50: 86.1 µM (inactive)
[3]
  GI50: > 100 µM (inactive)
[4]
  GI50: 93.8 µM (inactive)
[5]
  GI50: 68.7 µM (inactive)
[6]
  GI50: > 100 µM (inactive)
[7]
  GI50: > 100 µM (inactive)
[8]
  GI50: > 100 µM (inactive)
[9]
  GI50: > 100 µM (inactive)
[10]
  GI50: 99.3 µM (inactive)
[55]
  GI50: 41.6 µM (inactive)
[11]
  GI50: 58.5 µM (inactive)
[56]
  GI50: > 100 µM (inactive)
[12]
  GI50: 48.1 µM (inactive)
[13]
  GI50: 58.9 µM (inactive)
[57]
  GI50: > 100 µM (inactive)
[14]
  GI50: > 100 µM (inactive)
[15]
  GI50: > 100 µM (inactive)
[16]
  GI50: > 100 µM (inactive)
[17]
  GI50: > 100 µM (inactive)
[18]
  GI50: 81.8 µM (inactive)
[19]
  GI50: > 100 µM (inactive)
[20]
  GI50: 22.1 µM (inactive)
[21]
  GI50: 91.4 µM (inactive)
[22]
  GI50: > 100 µM (inactive)
[23]
  GI50: 37.3 µM (inactive)
[24]
  GI50: 93.5 µM (inactive)
[25]
  GI50: 66.2 µM (inactive)
[26]
  GI50: > 100 µM (inactive)
[27]
  GI50: > 100 µM (inactive)
[28]
  GI50: 56.6 µM (inactive)
[29]
  GI50: > 100 µM (inactive)
[30]
  GI50: > 100 µM (inactive)
[31]
  GI50: > 100 µM (inactive)
[58]
  GI50: 68.5 µM (inactive)
[32]
  GI50: > 100 µM (inactive)
[33]
  GI50: > 100 µM (inactive)
[34]
  GI50: > 100 µM (inactive)
[35]
  GI50: > 100 µM (inactive)
[36]
  GI50: > 100 µM
[37]
  GI50: > 100 µM (inactive)
[38]
  GI50: 48.5 µM (inactive)
[39]
  GI50: > 100 µM (inactive)
[40]
  GI50: 55.1 µM (inactive)
[41]
  GI50: > 100 µM (inactive)
[42]
  GI50: > 100 µM (inactive)
[43]
  GI50: > 100 µM (inactive)
[44]
  GI50: > 100 µM (inactive)
[45]
  GI50: > 100 µM (inactive)
[46]
  GI50: > 100 µM (inactive)
[47]
  GI50: 80.2 µM (inactive)
[48]
  GI50: > 100 µM (inactive)
[49]
  GI50: > 100 µM (inactive)
[50]
  GI50: 27 µM (inactive)
[51]
  GI50: 83 µM (inactive)
[52]
  GI50: 69.2 µM (inactive)
[53]
  GI50: 81.1 µM (inactive)
[54]
  GI50: > 100 µM (inactive)
